Experiments:
[1] = test system: choroidal neovascularization (CNV) model, increased vascular permeability; experiment: Laser-induced CNV mouse model, fluorescein-fluorescent fundus angiography, vascular permeability (Experiment 2); assay type: in vivo; details: fidarestat forced oral 16 mg/kg twice a day (32 mg/kg/day); 7 days after laser irradiation
Protocol: An anti-VEGF antibody and/or fidarestat were administered to a mouse that had been treated to induce CNV in a similar manner to that in Experiment 1. […] The number of examples was three or four per a group, and the following five groups were set. […] The both eyes were photographed by an eye-fundus camera, and the obtained eye-ground picture was evaluated in a blinded manner according to the following criteria. • grade 0: nonleaky, no leakage from blood-vessel • grade 1: questionable leakage, weak leakage was observed • grade 2: leaky, leakage was observed • grade 3: pathologically significant leakage, clear leakage was observed on wide area The ratio of the number of the FA grade 3 lesions (%) in each eye was calculated, and the average value of the calculated rates in each group was obtained. […]

[2] = test system: STZ-diabetic rat retina; details: streptozotocin (STZ)-diabetic rat, cited from earlier work
[3] = test system: choroidal neovascularization (CNV) model; experiment: Laser-induced choroidal neovascularization (CNV) mouse model, CNV volume (Experiment 1); assay type: in vivo, mouse (male C57BL/6J)
Text: In the CNV model, macrophages migrate by the initiation of an inflammation by laser irradiation. Since VEGF are produced, neovascular vessels are generated, and increased vascular permeability is observed as the result thereof, the CNV model is one of models that produce VEGF. […] The both eyes of a male C57BL/6J mice having a body weight of about 20 g (6-week old) were irradiated with laser (irradiated by 4 to 6 spots per one eye) to induce CNV experimentally. As mentioned below, an anti-VEGF antibody and/or fidarestat were administered as a drug. […] As the anti-VEGF antibody, an anti-mouse VEGF antibody purchased from R&D Systems was used. The number of examples was three or four per a group, and the following four groups were set. […] After completion of the laser irradiation, the mice were bred by general breeding for 7 days, and thereafter the eye balls were excised and the volume of CNV appeared in the choroid was measured. […] The volume of CNV was measured by importing an image in the vicinity of CNV by a confocal laser microscope (Zeiss LSM5 Pascal) and using image analysis software (NIH Image J). […]

[4] = injected in the vitreous body of a human; cited from earlier work

Row | Compound | ratio of the number of the FA grade 3 lesions [1] | overexpression of VEGF ([2]; retina) | retinal oxidative stress [2] | dose at which the maximum medicinal effect is shown ([3]; CNV mouse model, fidarestat) | effect of suppressing CNV (CNV volume) compared to the untreated group ([3]; fidarestat 32 mg/kg/day in powder feedstuff, from 2 days before to 7 days after laser irradiation) | disappearing half-life [4]
1 | NC(=O)[C@@H]1C[C@]2(NC(=O)NC2=O)c2cc(F)ccc2O1 [fidarestat, (2S,4S)-6-fluoro-2′,5′-dioxospiro[chroman-4,4′-imidazolidine]-2-carboxamide] | approximately the same rate as that in the 2 ng anti-VEGF antibody-administered group | suppresses | suppresses | 32 mg/kg/day | significant effect of suppressing CNV was observed (p<0.05) | 
2 | ranibizumab: typical anti-VEGF agent, anti-VEGF antibody used as intravitreal injection |  |  |  |  |  | 220 h

— patent US20120301478A1, “Pharmaceutical for Preventing or Treating Disorders Accompanied by Ocular Angiogenesis and/or Elevated Ocular Vascular Permeability” (priority 2010, published 2012)
